From article PMC6102691, “Identification of a novel ligand for the ATAD2 bromodomain with selectivity over BRD4 through a fragment growing approach” (Organic & Biomolecular Chemistry, 2018)

Key:
[1] = target: T1, ATAD2 bromodomain (Homo sapiens, UniProt Q6PL18); assay: Surface plasmon resonance (SPR) direct binding to ATAD2; conditions: for Kd: SPR format assay, Kd above the top concentration projected by extrapolation (extrapolated Rmax from control compound)
T1 construct: 981-1108; GST (N); made in house; host or cells: Escherichia coli BL21 (DE3) pLysS, plasmid pGEX-6P-1
T1 sequence (Q6PL18 981-1108): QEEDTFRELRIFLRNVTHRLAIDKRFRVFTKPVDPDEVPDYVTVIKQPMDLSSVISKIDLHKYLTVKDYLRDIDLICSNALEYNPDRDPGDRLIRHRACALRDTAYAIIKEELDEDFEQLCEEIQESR
Method: (§1) Surface plasmon resonance (SPR) was used to assess the direct binding of the fragments and provide Kd values for binding to both ATAD2 and BRD4. SPR can yield artefactual data where the concentration of a small-molecular analyte exceeds ∼250 μM, and accordingly, this was the highest concentration used in the assays.
(§2) 12.5 μM using an Echo 550 (Labcyte). Each well was backfilled to a final volume of 200 nl (for the […]), resulting in final DMSO concentrations of 2 %. 5 μl of GST-ATAD2 was added to each well and incubated for 30mins resulting in a final concentration of 5 nM.
(§3) 5μl of biotinylated-histone H4 peptide (SGRG-K(Ac)-GG-K(Ac)-GLG-K(Ac)-GGA-K(Ac)- RHRKVGG-K(Biotin)) was then added to each well at a final concentration of 500nM. Both GST-ATAD2 and peptide were diluted in buffer B (50 mM Tris pH 7.5, […], 1 mM DTT, 100 μg/ml bovine serum albumin (BSA)). The plate was then incubated at room temperature for 30mins and then 5 μl LanthaScreen® Tb-anti-GST Antibody (Life Technologies) at final concentration of 5 nM was added to each well and incubated for an additional 30mins. 5 μl of streptavidin-XLL65 (Cisbio Assay) at a final concentration of […] was added to each assay well. Both dyes were diluted in buffer C (50 mM Tris pH 7.5, […], 100 μg/ml BSA). The plate was incubated at room temperature for a further 30mins and then read using a PheraStar FS (BMG Labtech). The data were analysed using Graphpad […]
(§4) 1.4 Surface Plasmon Resonance (SPR).
(§5) SPR-based ligand binding assays were performed using Biacore S200 (GE Healthcare) at 25 °C using single cycle affinity.
(§6) ATAD2N1064A was achieved using standard amine coupling on a CM5 chip surface. The surface was prepared through activation with EDC/NHS, followed by injection of 10 µg/ml of respective proteins until target level 8000 RU was reached. The surface was then quenched using 1 M Ethanolamine and washed with running buffer 10 mM HEPES, 150mM NaCl, 0.01% TWEEN20, 0.5 mM TCEP and 1% DMSO with a flow rate of […]. Compounds were injected in a dose-response manner (8 concentration points ranging from 0-200 µM) in series across the control, ATAD2, BRD4, and ATAD2-N1064A flow cells using solvent correction to account for bulk refractive index changes. The reference control channel was subtracted […]
(§7) from immobilised channels and dose-response data was fitted using a steady state constant Rmax 1:1 binding model, using an extrapolated Rmax determined from a binding control compound in those cases where the extrapolated Kd value was greater than the top concentration used in the experiment (200 µM). K d values are reported to the nearest 100th of micromolar. 1 […]
(§8) Crystallisation was performed at 20 °C using the hanging drop vapor diffusion method.
(§9) Crystals of ATAD2 were grown by mixing 2µl ATAD2 at 7mg/ml and 2µl precipitant containing 0.1 M BIS-TRIS pH 6.5 and 2.0 M ammonium sulfate. Crystals were harvested in a diffusion solution containing 10 mM compound, 5% DMSO, 25 mM HEPES pH 7.5, 75 mM NaCl, 50 mM BIS-TRIS pH 6.5 and 1.0 M Ammonium Sulfate for 48hrs. Prior to data collection the crystals were cryo protected with the addition of 25% (v/v) ethylene glycol to the diffusion solution. X-ray diffraction data were recorded at Diamond Light Source (Harwell, Oxfordshire, UK). Data processing was carried out using XDS, POINTLESS/AIMLESS2 and other programs of the CCP4i suite3 run through the CCP4i2 gui. Structures were solved by molecular replacement using PHASER4 and pdb 3DAI as a starting model. REFMAC5 was employed for refinement, and model building was performed using COOT6. PDBs were deposited within the protein database www.pdb.org using accession codes: 11 XXXX, 15a […]

[2] = target: BRD4 (Homo sapiens, UniProt O60885); assay: Surface plasmon resonance (SPR) direct binding to BRD4; conditions: for Kd: SPR format assay, Kd above the top concentration projected by extrapolation (extrapolated Rmax from control compound); for selectivity between ATAD2 and BRD4, in words: BRD4 versus ATAD2
Method: as §1, with “assays. Where the Kd exceeded this limit, projected Kds were determined by extrapolation, using the observed response units for compound binding (RU) relative to the molecular weight of a known control compound.[23]” for “assays.”
as §2, §3, §4, §5, §6, §7, §8, §9

[3] = target: T2, GST-ATAD2 bromodomain / biotinylated acetylated histone H4 peptide (Homo sapiens, UniProt Q6PL18); assay: ATAD2-histone displacement HTRF assay; type: binding; conditions: for ATAD2 inhibition in HTRF, in words: highest concentration assayed 1000 μM; for IC50: HTRF format assay, highest concentration 1000 μM; for ATAD2 LE: Ligand efficiency (LE) = 1.4(–log IC50)/N, N = number of non-hydrogen atoms, from HTRF IC50
T2 construct: 981-1108; made in house; host or cells: Escherichia coli BL21 (DE3) pLysS, plasmid pGEX-6P-1
T2 sequence (Q6PL18 981-1108): T1 sequence (Q6PL18 981-1108)
Method: as §1
1.1 Protein Purification.
The ATAD2 bromodomain 981-1108 was expressed with an N-terminal GST fusion from the pGEX-6P-1 plasmid. The plasmids were transformed into BL21 (DE3) pLysS Escherichia coli (Novagen) and then the cells grown in luria bertani (LB) media at 37 °C until an OD600 of 0.6 was reached. The temperature was reduced to 20 °C and expression induced using 0.2 mM Isopropyl β-D-1-thiogalactopyranoside (IPTG). The cells were harvested after overnight incubation and resuspended in buffer A (20 mM HEPES pH 7.4, 100 mM NaCl, 5 mM Dithiothreitol (DTT)). The cells were lysed by sonication and the lysate cleared by centrifugation (50,000 x g, 4 °C, 1 hr). The protein was passed over 5ml of glutathione Sepharose 4B resin (GE Healthcare) at 4 °C. The resin was then washed with buffer A and the protein eluted with buffer A supplemented with 10 mM glutathione. The protein was then applied to a Superdex 200 26/60 gel filtration column (GE Healthcare) equilibrated in buffer […]
1.2 Isothermal Titration Calorimetry.
ATAD2 was exchanged into ITC buffer (50 mM HEPES pH7.4, 200 mM NaCl, 1 mM DTT).
ITC measurements were carried out at 25°C on a Microcal ITC 200 (Malvern Instruments Ltd, Malvern, UK). Compound 11 at 40mM, 2% DMSO was titrated into ATAD2 prepared in the cell at 150 μM, 2% DMSO. Titrations began with an initial 0.5 μL injection followed by 19x 2 μL injections of compound, with 120s spacing between each injection, and stirred at 1000 rpm throughout the experiment. Data were then analysed using Origin 7.0 (OriginLab Corp., Burlington, NC, USA) and fit with the one-set-of-sites model.
1.3 ATAD2-Histone displacement HTRF assay.
Compounds (dissolved to 100 mM in DMSO) were dispensed into black 384 well assay plates […]
as §2, §3, §4, §5
ATAD2N1064A was achieved using standard amine coupling on a CM5 chip surface. The surface was prepared through activation with EDC/NHS, followed by injection of 10 µg/ml of respective proteins until target level 8000 RU was reached. The surface was then quenched using 1 M Ethanolamine and washed with running buffer 10 mM HEPES, 150mM NaCl, 0.01% TWEEN20, 0.5 mM TCEP and 1% DMSO with a flow rate of […]. Compounds were injected in a dose-response manner (8 concentration points ranging from 0-200 µM) in series across the control, ATAD2, BRD4, and ATAD2-N1064A flow cells using solvent correction to account for bulk refractive index changes. The reference control channel was subtracted

Row | SMILES | ATAD2 binding by SPR, in words ([1]; SPR) | Kd [2] [µM] | ATAD2 inhibition in HTRF, in words [3] | Kd [1] [µM] | binding constant towards ATAD2 relative to BRD4 (fold weaker) ([1]; SPR, ATAD2 Kd versus BRD4 Kd) [fold] | IC50 [3] [µM] | ATAD2 LE [3] | BRD4 binding by SPR, in words ([2]; SPR) | selectivity between ATAD2 and BRD4, in words ([2]; SPR)
1 | Cn1cc2c(cc1=O)C(C)(C)C(=O)N2 [Compound 7] | bound too weakly to ATAD2 to allow Kd values to be calculated | > 2000 | some inhibition was observed at the highest concentration assayed |  |  |  |  |  | 
2 | CCN1C(=O)C(C)(C)c2cc(=O)n(C)cc21 [Compound 14a] |  | 12.7 | some inhibition was observed at the highest concentration assayed | > 200 | 100 | > 1000 |  |  | 
3 | Cn1cc2c(cc1=O)C(C)(C)C(=O)N2Cc1ccccc1 [Compound 14b] |  | > 200 | sub-millimolar HTRF IC50 values | > 2000 |  | 810 ± 57 | 0.21 |  | 
4 | Cn1cc2c(cc1=O)C(C)(C)C(=O)N2CCc1ccccc1 [Compound 14c] |  | > 200 | sub-millimolar HTRF IC50 values | > 200 |  | 868 ± 33 | 0.19 |  | 
5 | Cn1cc2c(cc1=O)C(C)(C)C(=O)N2CCN1CCCC1 [Compound 14d] |  | > 200 |  | > 2000 |  | > 1000 |  |  | 
6 | Cn1cc2c(cc1=O)C(C)(C)C(=O)N2CCN1CCOCC1 [Compound 14e] |  | > 2000 |  | > 2000 |  | > 1000 |  |  | 
7 | Cn1cc2c(cc1=O)C(C)(C)C(=O)N2CCO [Compound 14g] |  | > 2000 |  | > 2000 |  | > 1000 |  |  | 
8 | CC1(C)C(=O)Nc2cn(Cc3ccccc3)c(=O)cc21 [Compound 15c] |  | > 200 |  | > 200 |  | > 1000 |  |  | 
9 | CN1C(=O)C(C)(C)c2cc(=O)n(C)cc21 [Compound 17a] | bound too weakly to ATAD2 to allow Kd values to be calculated | > 200 | some inhibition was observed at the highest concentration assayed | > 2000 |  | > 1000 |  | detectable binding to BRD4 | 
10 | CCCn1cc2c(cc1=O)C(C)(C)C(=O)N2C [Compound 17b] |  | > 200 |  | > 2000 |  | > 1000 |  |  | 
11 | CN1C(=O)C(C)(C)c2cc(=O)n(Cc3ccccc3)cc21 [Compound 17c] |  | 101 | sub-millimolar ATAD2 IC50 values | > 200 |  | 681 ± 120 | 0.21 |  | bound more tightly to BRD4 than to ATAD2
12 | CN1C(=O)C(C)(C)c2cc(=O)n(CCc3ccccc3)cc21 [Compound 17d] |  | 161 | sub-millimolar ATAD2 IC50 values | > 200 |  | 741 ± 74 | 0.20 |  | bound more tightly to BRD4 than to ATAD2
13 | COC(=O)c1ccc(Cn2cc3c(cc2=O)C(C)(C)C(=O)N3C)cc1 [Compound 17e] |  | 141 |  | > 200 |  | 651 ± 1 | 0.18 |  | 
14 | CN1C(=O)C(C)(C)c2cc(=O)n(Cc3ccc(C(=O)O)cc3)cc21 [Compound 17f] |  | > 200 |  | > 200 |  | 533 ± 40 | 0.19 |  | 
15 | CN1C(=O)C(C)(C)c2cc(=O)n(Cc3ccc(C#N)cc3)cc21 [Compound 17g] |  | 142 |  | > 200 |  | 562 ± 67 | 0.20 |  | 
16 | CN1C(=O)C(C)(C)c2cc(=O)n(Cc3ccc(C(N)=O)cc3)cc21 [Compound 17h] |  | > 200 |  | > 200 |  | 680 ± 66 | 0.18 |  | 
17 | CN1C(=O)C(C)(C)c2cc(=O)n(Cc3ccc(S(C)(=O)=O)cc3)cc21 [Compound 17i] |  | 200 |  | > 200 |  | 359 ± 37 | 0.19 |  | 
18 | CN1C(=O)C(C)(C)c2cc(=O)n(Cc3ccc(Cl)cc3)cc21 [Compound 17j] |  | 40 |  | 200 |  | 190 ± 63 | 0.24 |  | 
19 | CN1C(=O)C(C)(C)c2cc(=O)n(Cc3ccc(Br)cc3)cc21 [Compound 17k] |  | 48 |  | 138 |  | 236 ± 36 | 0.23 |  | 
20 | CN1C(=O)C(C)(C)c2cc(=O)n(Cc3ccc(C(F)(F)F)cc3)cc21 [Compound 17m] |  | 124 |  | > 200 |  | 179 ± 43 | 0.21 |  | 
21 | CN1C(=O)C(C)(C)c2cc(=O)n(Cc3ccc(Cl)c(Cl)c3)cc21 [Compound 17n] |  | 65 |  | 159 |  | 299 ± 28 | 0.21 |  | 
22 | CN1C(=O)C(C)(C)c2cc(=O)n(Cc3ccccc3C#N)cc21 [Compound 17o] |  | > 200 |  | > 2000 |  | > 1000 |  |  | 
